# Data taken from article PMC13266999, “Designing Antibiotics with Inherent Resistance to Efflux as a Strategy to Revive Discovery against Multidrug-Resistant Pathogens” (Journal of Medicinal Chemistry, 2026).
# Test system: Neisseria gonorrhoeae
# Test: MIC
# Assay type: cell-based
smiles,measurement,setting,value
"C[C@H]1COc2c(N3CC[C@@H](Nc4ncccn4)C3)c(F)cc3c(=O)c(C(=O)O)cn1c23 [Compound 46, (S)-9-Fluoro-3-methyl-7-oxo-10-((R)-3-(pyrimidin-2-ylamino)pyrrolidin-1-yl)-2,3-dihydro-7H-[1,4]oxazino[2,3,4-ij]quinoline-6-carboxylic acid]",MIC,2007NG046,4 µg/mL
same,MIC,2008NG057,2 µg/mL
same,MIC,2008NG097,2 µg/mL
same,MIC,2009NG514,2 µg/mL
same,MIC,2010NG122,2 µg/mL
same,MIC,"ATCC49226, ATCC 49226",≤ 0.03 µg/mL
same,MIC,"ATCC700825, ATCC 700825",≤ 0.03 µg/mL
same,MIC,"BAA1833, BAA-1833",≤ 0.03 µg/mL
same,MIC,"BAA1838, BAA-1838",≤ 0.03 µg/mL
same,MIC,"CCUG57595, CCUG 57595",≤ 0.03 µg/mL
same,MIC,"CCUG57596, CCUG 57596",0.125 µg/mL
same,MIC,"CCUG57597, CCUG 57597",2 µg/mL
same,MIC,"CCUG57598, CCUG 57598",2 µg/mL
same,MIC,"CCUG57599, CCUG 57599",0.5 µg/mL
same,MIC,"CCUG57600, CCUG 57600",1 µg/mL
same,MIC,"CCUG57601, CCUG 57601",≤ 0.03 µg/mL
same,MIC,"CCUG57602, CCUG 57602",0.06 µg/mL
same,MIC,FDA-CDC AR-BANK#0165,2 µg/mL
same,MIC,FDA-CDC AR-BANK#0166,2 µg/mL
same,MIC,FDA-CDC AR-BANK#0167,≤ 0.03 µg/mL
same,MIC,FDA-CDC AR-BANK#0168,1 µg/mL
same,MIC,FDA-CDC AR-BANK#0169,2 µg/mL
same,MIC,FDA-CDC AR-BANK#0170,2 µg/mL
same,MIC,FDA-CDC AR-BANK#0171,1 µg/mL
same,MIC,FDA-CDC AR-BANK#0172,1 µg/mL
same,MIC,FDA-CDC AR-BANK#0173,2 µg/mL
same,MIC,FDA-CDC AR-BANK#0174,2 µg/mL
same,MIC,FDA-CDC AR-BANK#0175,≤ 0.03 µg/mL
same,MIC,FDA-CDC AR-BANK#0176,2 µg/mL
same,MIC,FDA-CDC AR-BANK#0177,≤ 0.03 µg/mL
same,MIC,FDA-CDC AR-BANK#0178,2 µg/mL
same,MIC,FDA-CDC AR-BANK#0179,≤ 0.03 µg/mL
same,MIC,FDA-CDC AR-BANK#0180,2 µg/mL
same,MIC,FDA-CDC AR-BANK#0181,≤ 0.03 µg/mL
same,MIC,FDA-CDC AR-BANK#0182,2 µg/mL
same,MIC,FDA-CDC AR-BANK#0183,2 µg/mL
same,MIC,FDA-CDC AR-BANK#0184,2 µg/mL
same,MIC,FDA-CDC AR-BANK#0185,2 µg/mL
same,MIC,FDA-CDC AR-BANK#0186,1 µg/mL
same,MIC,FDA-CDC AR-BANK#0187,2 µg/mL
same,MIC,FDA-CDC AR-BANK#0188,1 µg/mL
same,MIC,FDA-CDC AR-BANK#0189,2 µg/mL
same,MIC,FDA-CDC AR-BANK#0190,2 µg/mL
same,MIC,FDA-CDC AR-BANK#0191,2 µg/mL
same,MIC,FDA-CDC AR-BANK#0192,2 µg/mL
same,MIC,FDA-CDC AR-BANK#0193,≤ 0.03 µg/mL
same,MIC,FDA-CDC AR-BANK#0194,≤ 0.03 µg/mL
same,MIC,FDA-CDC AR-BANK#0195,2 µg/mL
same,MIC,FDA-CDC AR-BANK#0196,2 µg/mL
same,MIC,FDA-CDC AR-BANK#0197,2 µg/mL
same,MIC,FDA-CDC AR-BANK#0198,2 µg/mL
same,MIC,FDA-CDC AR-BANK#0199,≤ 0.03 µg/mL
same,MIC,FDA-CDC AR-BANK#0200,2 µg/mL
same,MIC,FDA-CDC AR-BANK#0201,2 µg/mL
same,MIC,FDA-CDC AR-BANK#0202,≤ 0.03 µg/mL
same,MIC,FDA-CDC AR-BANK#0203,2 µg/mL
same,MIC,FDA-CDC AR-BANK#0204,2 µg/mL
same,MIC,FDA-CDC AR-BANK#0205,2 µg/mL
same,MIC,FDA-CDC AR-BANK#0206,2 µg/mL
same,MIC,FDA-CDC AR-BANK#0207,2 µg/mL
same,MIC,FDA-CDC AR-BANK#0208,2 µg/mL
same,MIC,FDA-CDC AR-BANK#0209,2 µg/mL
same,MIC,FDA-CDC AR-BANK#0210,2 µg/mL
same,MIC,FDA-CDC AR-BANK#0211,2 µg/mL
same,MIC,FDA-CDC AR-BANK#0212,2 µg/mL
same,MIC,FDA-CDC AR-BANK#0213,1 µg/mL
same,MIC,FDA-CDC AR-BANK#0214,2 µg/mL
same,MIC,"NCTC13477, NCTC 13477",≤ 0.125 µg/mL
same,MIC,"NCTC13817, NCTC 13817",0.5 µg/mL
same,MIC,"NCTC13818, NCTC 13818",2 µg/mL
same,MIC,"NCTC13819, NCTC 13819",2 µg/mL
same,MIC,"NCTC13820, NCTC 13820",2 µg/mL
same,MIC,"NCTC13821, NCTC 13821",2 µg/mL
same,MIC,"NCTC13822, NCTC 13822",2 µg/mL
same,MIC,TCDC-NG08107,2 µg/mL
same,MIC90,panel of 75 clinical isolates,2 µg/mL
same,MIC,several isolates of the panel,0.03 to 0.5 µg/mL
